Experimental findings from patent US10300048B2, “Thiazolidinones as cellular anandamide uptake inhibitors and their use in the treatment of psychiatric or neurological disorders and inflammation, in particular neuroinflammation” (UNIVERSITAT BERN, priority 2014, dated 2019) are described below.

Experiment [1] concerns TNF-alpha and IL-1beta in brain. The experiment is described as follows: Endotoxemia mouse model (LPS), brain cytokines. Format: in vivo, mice. Conditions: 5 mg/kg i.p. 30 min prior to LPS 250 μg/100 g i.p., vs. vehicle, P<0.05. The method, then: Male BALB/c mice were injected i.p. with test compounds (5 mg/kg) or vehicle (DMSO, 20 μL) 30 min prior to LPS administration (250 μg/100 g body weight) in 50 μL saline solution. The administrations were conducted between 9:00 and 10:00 am. 30 min prior to scarification, 20 units (200 μL) of Inhepar® were injected subcutaneously. […] The brain was immediately removed on ice and stored in liquid nitrogen. […] The concentrations of the cytokines in brain and plasma were measured using commercially available Luminex MagPix cytokines assay (BioRad) specific for mice, according to the manufacturer's instructions. The acquisition of the fluorescent signal was achieved by a charged-coupled device (CCD) imager. The concentration of the analytes was determined by MAGPIX xPONENT. The assays were run in triplicates and the concentrations were expressed in pg/mL based on a standard curve.
Statistical analysis and IC50 values were determined using GraphPad® Prism 5.0 (GraphPad® Software, San Diego, Calif., US). Inhibition curves were obtained by non-linear regression using the built-in log(inhibitor) vs. response-variable slope (four parameters) function. Results were calculated as % of vehicle control of the corresponding fraction (cells, aqueous phase) if not mentioned else. In vivo results are shown in absolute values and were analyzed by a one-way ANOVA following a Tukey's multiple comparison test or student's t-test. If not indicated else the results were compared vs. vehicle (CTRL). *** P<0.001, ** P<0.01, * P<0.05, ns=not significant P>0.05.

Experiment [2] has as its target hCB1 receptor (Homo sapiens (Human), UniProt P21554). The experiment in a line: Radioligand CB receptor binding, [3H]-CP55,940 displacement on CHO-K1 hCB1 membranes. The note with it: for CB1 receptor binding (%) at 10 µM: Table 4. As for the experimental part: Stably transfected CHO-K1 cells expressing hCB1 or hCB2 receptors (Gertsch et al., 2008, Proc Natl Acad Sci 105, 9099-104) were cultured in T150 cm^2 flasks up to 90% confluence. The medium was removed and cells were washed twice with PBS, 37° C. 10 mL of PBS was added and the cells were scraped and transferred into a falcon tube following homogenization by a Polytron PT1300D for 5 min at 30 krpm. Then, the homogenate was centrifuged (1400×g, 5 min) to remove debris. The supernatant was subjected to ultracentrifugation (64000×g, 45 min, 4° C.) to separate cytosolic from the membrane fraction. The supernatant was discharged and the pellet resuspended in PBS by sonication. Protein quantity was determined by BCA assay (Thermo Scientific) and aliquots of 500 μL were stored at −80° C. until use.
Radioligand CB Receptor Binding
Binding properties of ETI-T compounds to hCB1 or hCB2 receptors were performed as previously reported in a [^3H]-CP55,940 displacement assay (Gertsch et al., 2008, Proc Natl Acad Sci 105, 9099-104). WIN 55,212-2 was used as positive control. In brief, 20 μg protein of CHO-K1 hCB1 or hCB2 membrane preparations were thawed on ice and resuspended in a final volume of 500 μL binding buffer (50 mM Tris-HCl, 2.5 mM EDTA, 5 mM MgCl2, 0.5% fatty acid free BSA, pH 7.4) in silanized glass vials. [^3H]-CP55,940 (168 Ci/mmol) (PerkinElmer, Waltham, Mass., US) was added to a final concentration of 0.5 nM followed by the addition of competitors or vehicle in 5 μL DMSO. Membrane binding was equilibrated for 2 h at room temperature (25° C.). Samples were filter through a 0.1% polyethylenimine pre-soaked UniFilter®-96 GF/B plate (PerkinElmer) and washed twelve times with 167 μL ice-cold assay-buffer. The plate was dried, bottom sealed and 45 μL MicroScint 20 scintillation cocktail (PerkinElmer) were added before measured on a PerkinElmer 1450 Microbeta TRILUX liquid scintillation counter. Unspecific binding was determined by WIN 55,212-2, 10 μM and subtracted from all values. […].

Molecules are shown by their SMILES.

hCB1 receptor, sequence (P21554 whole entry): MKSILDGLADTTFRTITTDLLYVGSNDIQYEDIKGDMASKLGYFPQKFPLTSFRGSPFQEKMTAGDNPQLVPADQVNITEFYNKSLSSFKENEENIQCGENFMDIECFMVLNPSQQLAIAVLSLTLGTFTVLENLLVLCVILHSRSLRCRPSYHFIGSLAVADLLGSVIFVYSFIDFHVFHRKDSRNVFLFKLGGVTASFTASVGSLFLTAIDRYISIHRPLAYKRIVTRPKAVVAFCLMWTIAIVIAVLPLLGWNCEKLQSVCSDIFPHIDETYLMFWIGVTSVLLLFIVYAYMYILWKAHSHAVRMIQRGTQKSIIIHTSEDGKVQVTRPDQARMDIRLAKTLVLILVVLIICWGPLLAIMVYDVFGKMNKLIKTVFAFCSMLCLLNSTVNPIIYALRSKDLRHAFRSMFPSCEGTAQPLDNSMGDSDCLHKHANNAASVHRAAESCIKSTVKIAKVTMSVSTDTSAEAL

As for `COc1ccc(/C=C2\S/C(=N\c3ccc(OC)cc3)N(c3ccc(OC)cc3)C2=O)cc1` [Compound 5], in experiment [1] (after 2 hours), the “IL-1beta level in total brain” value is “Decrease” and the “TNF-alpha level in total brain” value is listed as “Decrease”. Further, in experiment [1] (after 8 hours), the “IL-1beta level in total brain” value is listed as “Decrease” and the “TNF-alpha level in total brain” value is “Decrease”. Moreover, in experiment [2], the CB1 receptor binding (%) at 10 µM came out at 37%.

In the case of `COc1cc(/C=C2\S/C(=N\c3ccccc3)N(c3ccccc3)C2=O)ccc1O` [Compound 6], the CB1 receptor binding (%) at 10 µM in experiment [2] amounted to 64%.

Consider `O=C1/C(=C/c2cc(Cl)c(O)c(Cl)c2)S/C(=N\c2ccccc2)N1Cc1ccco1` [Compound 23], for which the “CB1 receptor binding % binding at 10 μM” value in experiment [2] (Table 3) is listed as 24%. Further, in experiment [2], the CB1 receptor binding (%) at 10 µM is 24%.
